Measured values as given in patent publication US20040024033A1 (priority 1998, published 2004).
Like-named read-outs stand apart in the source and are kept apart here.

How the values were obtained:
[1] = tested on: human HCT-15 colon carcinoma; assay type: in vivo, female BALB/c nude mice; conditions: 4 mg/kg, i.v. once on day 14
Method: Female or male BALB/c nu/nu (nude) mice are kept under sterile conditions (10 to 12 mice per Type III cage) with free access to food and water. Mice weigh between 20 and 25 grams at the time of tumor implantation. Tumors are established by subcutaneous injection of cells (minimum 2×10^6 cells in 100 μl PBS or medium) in carrier mice (4-8 mice per cell line). The resulting tumors are serially passaged for a minimum of three consecutive transplantations prior to start of treatment. Tumor fragments (approx. 25 mg) are implanted s.c. into the left flank of animals with a 13-gauge trocar needle while the mice are exposed to Forene (Abbott, Switzerland) anesthesia.
Tumor growth and body weights are monitored once or twice weekly. All treatments are administered intravenously (i.v.) and are initiated when a mean tumor volume of approximately 100 to 250 mm^3 is attained, depending upon the tumor type. Tumor volumes are determined using the formula […] (see Cancer Chemother. Pharmacol. 24:148-154, [1989]). Treatments with epothilone B vary the dose and the frequency of administration. Comparator agents are administered according to previously determined optimal treatment regimens. In addition to presenting changes in tumor volumes over the course of treatment, antitumor activity is expressed as T/C% (mean increase of tumor volumes of treated animals divided by the mean increase of tumor volumes of control animals multiplied by 100). Tumor regression (%) represents the smallest mean tumor volume compared to the mean tumor volume at the start of treatment, according to the formula Regression (%)=(1−Vend/Vstart)×100 (Vend=final mean tumor volume, Vstart=mean tumor volume at the start of treatment. Any animals in which the tumor has reached a size exceeding approximately 1.5 to 2.5 cm^3 are sacrificed. Details can be found below.
Tumor fragments of approximately 25 mg are implanted into the left flank of each female nude mouse (n=8 per group). Treatments are started on day 14 after tumor transplantation. Epothilone B is administered once at 4 mg/kg, i.v. on day 14.5-Fluorouracil is administered at 75 mg/kg, i.v., on days 14 and 21. TAXOL® is administered i.v. at 20 mg/kg/day, every second day for 5 treatments (days 14, 16, 18, 20 and 22). Antitumor activity is expressed as T/C% (mean increase of tumor volumes of treated animals divided by the mean increase of tumor volumes of control animals multiplied by 100). Tumor regression (%) represents the final mean tumor volume compares to the mean tumor volume at the start of treatment. Δ Tumor volumes represent the tumor volume on the last treatment day minus the tumor volume on the first treatment day. Statistical analyses on Δ tumor volumes uses Dunnett's test to compare treatment groups to controls. Statistical analyses on body weight changes uses paired t-tests comparing body weights before treatment to those at the end of treatment; mice weigh ˜20-25 g at the start of treatment. Not significant is indicated by the abbreviation ,ns”. Data presented are means±SEM from animals surviving to the end of the experiment.

[2] = tested on: human PC-3M prostate carcinoma cells; experiment: Antitumor effect against orthotopically injected PC-3M cells; assay type: in vivo, male BALB/c nude mice
Method: Human prostate carcinoma PC-3M cells (1×10^6 cells per 20 μl phosphate buffered saline) are injected into the left […] of the prostate of each animal (n=6-9/group) according the method previously described (see Stephenson et al., J. Natl. Cancer Inst. 84, 951-7 (1992)). Treatment is started on day 14 after cell injection. At this time point a mean tumor weight of ˜20 mg is established. Epothilone B is administered either once or once weekly. Mice are sacrificed 42 days post tumor inoculation, and the prostates are carefully removed, dissected free of adhering tissue and weighed. […] Mesenteric lymph nodes are examined for the presence of metastases, dissected free of adhering tissue and weighed.
Tumor weight and body weights are monitored once or twice weekly. All treatments are administered intravenously (i.v.) and are initiated 14 days post cell injection. Treatment with epothilone B varies the dose and frequency of administration. Antitumor activity is expressed as T/C% (mean tumor weight of treated animals divided by the mean tumor weight of control animals multiplied by 100).
1×10^6 PC-3M cells in 20 μL of PBS are injected into the […] of the prostate of each male nude mouse (n=9 per group). Treatments are started on day 14 after tumor cell injection. epothilone B is administered i.v., once at 6 or 8 mg/kg, or once per week at 4 or 5 mg/kg. Antitumor activity is expressed as T/C% (mean tumor weight of treated animals divided by the mean of tumor weight of control animals multiplied by 100). Differences in body weights consider only animals surviving to the end of the experiment (day 42). Statistical analyses on A body weight uses paired t-tests comparing body weights before treatment to the end of treatment; mice weigh˜20-25 g at the start of treatment. Not significant is indicated by the abbreviation ,ns”.

[3] = tested on: A549 non-small cell lung tumors; assay type: in vivo, outbred athymic (nu/nu) mice; conditions: for % T/C / Dead/Total: extended observation, day 48
Method: Materials and methods pertaining to the human tumor xenograft model are as previously described.
Measurements are taken for an additional 2 weeks after completion of the regular 3 weeks experiments, to evaluate reversibility of drug-induced body weight loss, and sustainability of antitumor effects.
Treatments are started on day 13 post implantation (10 million cells/animal). Epothilone B is administered i.v. once weekly for 3 weeks (days 13, 20, and 27) at doses of 1, 2, 3, and 3.5 mg/kg. […] Final data are recorded on day 34. A single asterisk (*) indicates p<0.05 using a one-tailed Student's t-Test, and a double asterisk (**) indicates p<0.05 using a Dunnett's or Dunn's test.
Measurements for the experiment described in Table 1 are extended by additional two weeks. Final data are recorded on day 48. A single asterisk (*) indicates p<0.05 using a one-tailed Student's t-Test, and a double asterisk (**) indicates p<0.05 using a Dunneff's or Dunn's test.

[4] = GLP toxicology study in dogs; assay type: in vivo; conditions: dog
Method: The starting dose level is 0.3 mg/m^2. This dose is calculated as one-third of the toxic dose low (TDL) in the most sensitive species studied which, for epothilone B, is the dog. […] Using a factor of 20 to convert mg/kg in the dog to mg/m^2 in humans, this starting dose is calculated as: […]

[5] = 1 mg/kg i.v. once weekly for 3 weeks
[6] = 2 mg/kg i.v. once weekly for 3 weeks
[7] = 3 mg/kg i.v. once weekly for 3 weeks
[8] = 3.5 mg/kg i.v. once weekly for 3 weeks

C/C(=C\c1csc(C)n1)[C@@H]1C[C@@H]2O[C@]2(C)CCC[C@H](C)[C@H](O)[C@@H](C)C(=O)C(C)(C)[C@@H](O)CC(=O)O1 [epothilone B]
% Body Weight Change [1]: 2 ± 2%
Mortalities due to treatment [1]: No mortalities
T/C [1]: Regres-
D Body Weight ([1]; mean ± SEM): 0.4 ± 0.3 g
Δ Body Weight ([2]; 4 mg/kg, i.v. once per week): -1.2 g
Δ Body Weight ([2]; 5 mg/kg, i.v. once per week): -6.8 g
Δ Body Weight ([2]; 6 mg/kg, i.v. once): -1.4 g
Δ Body Weight ([2]; 8 mg/kg, i.v. once): -5.2 g
% T/C [3, 5]: 72%
Dead/Total [3, 5]: 0/8
% T/C [3, 6]: 49%
Dead/Total [3, 6]: 0/8
% T/C [3, 7]: 16%
Dead/Total [3, 7]: 0/8
% T/C [3, 8]: 12%
Dead/Total [3, 8]: 0/8
body weight loss ([3]; 3.5 and 3 mg/kg i.v. once weekly, reversible): approximately 15%
toxic dose low (TDL) ([4]; most sensitive species, estimated): ~0.5 mg/kg
Mortalities ([4]; 0.1 mg/kg, repeated once 3 weeks later (lower of the 2 doses)): no mortalities
